Measurements reported in patent US11679082B2, “Therapeutic constructs for co-delivery of mitotic kinase inhibitor and immune checkpoint inhibitor” (Oregon Health & Science University, priority 2019, dated 2023).

Assays:
acute myeloid leukemia = conditions: phase III; cited from earlier work
LLC-JSP cells = experiment: Cell viability of LLC-JSP cells (Cell Titer Glo); format: cell-based, mouse; conditions: 4 days, dose-dependent
Method: (FIG. 14B) Treatment effect of ADC versus free alisertib of equivalent dose on viability of LLC-JSP cells (2-days). […] (FIG. 14C) Effect of PD-L1 on the viability of LLC-JSP cells.
Cell viability after treatments: Cells (1500/well) were plated in white flat bottom 96 well plate overnight. The following day, cells were treated with indicated treatments and media was changed 24 hr post treatment. 3-5 day post treatment, cell viability was assessed using Cell Titer Glo assay (Promega) following manufacturer's instructions. Luminescence was read with Tecan plate reader.

PD-L1 = PD-L1 surface expression of LLC-JSP cells by flow cytometry; format: cell-based, mouse; conditions: 500 ng/ml inhibitor
Text: FIGS. 3A-3C. […] (FIG. 3A) PLK1 and PD-L1 mRNA expression in A549 (human NSCLC) at 48 hr post treatment with PLK1 siRNA (siPLK1) or scrambled siRNA (siSCR) normalized to HPRT housekeeping gene. Data presented as mean±SD from triplicates; ****P<0.0001. (FIG. 3B) PD-L1 surface expression of A549 ([…]) and LLC-JSP (a mouse NSCLC, FIG. 3C) at 72 hr post treatments assessed by flow cytometry (10,000 events per sample). Mouse siPLK1 seq. […] (SEQ ID NO: 1); Human siPLK1 seq. […] (SEQ ID NO: 2).
FIGS. 4A-4C Treatment effects of mitotic kinase inhibitors on (A) 3-day viability of LLC-JSP cells, (B) PD-L1 expression levels of surviving cells post treatment with 500 ng/ml of volasertib, alisertib, or AZD7762 as determined by flow cytometry and (C) their quantification.
FIGS. 6A-6D Nanoparticle delivery of PLK1 inhibitor volasertib (iPLK1-NP) to mouse NSCLC cells. (FIG. 6A) Schematic of synthesis of iPLK1-NP. (FIG. 6B) Hydrodynamic size of NP (with no inhibitor) and iPLK1-NP measured with Zetasizer. (FIG. 6C) Viability of LLC-JSP cells treated with volasertib (in 1% DMSO/PBS), iPLK1-NP (in PBS), or 1% DMSO/PBS for 4 days. Data presented as mean±SD from 4 independent samples; ****P<0.0001. (FIG. 6D) PD-L1 surface expression of LLC-JSP cells treated with PBS or iPLK1-NP (42 μg/ml NP, 210 ng/ml volasertib) for 3 days.
FIGS. 7A-7E. Nanoparticle for co-delivery of PLK1 inhibitor (iPLK1) and PD-L1 antibody (p-iPLK1-NP). (FIG. 7A) Schematic and (FIG. 7B) hydrodynamic size of p-iPLK1-NP containing 4 wt. % of PD-L1 antibody and 0.5 wt. % of PLK1 inhibitor. (FIG. 7C) 5-day cell viability of LLC-JSP cells treated with iPLK1-NP or p-iPLK1-NP. Data presented as mean±SD from 4 independent samples; ns—not significant. PD-L1 surface expression assessed by flow cytometry after LLC-JSP cells were incubated with various treatments as specified for (FIG. 7D) 2 hrs and (FIG. 7E) 2 days. […]
Flow cytometry: Cells (100K cells/well) were plated in 6 well plates overnight and treated with indicated treatments the next day. […] Cells were then washed with FACs buffer and analyzed with Guava (50,000 events per sample).

lung cancer = conditions: phase II, 300 mg once every 3 weeks; cited from earlier work
A549 = experiment: Cell cycle arrest in G2/M phase in A549; format: cell-based, human; conditions: A549, 72 hr post treatment; siRNA 50 nM, BI 2536 10 nM
Method: FIGS. 2A-2D. Effects of siRNA against mitotic regulator PLK1 (siPLK1) on non-small-cell lung carcinoma (NSCLC) cell lines (A549 and H460). (FIG. 2A) 48-hr PLK1 mRNA knockdown (HPRT used as house-keeping gene) and (FIG. 2B) 72-hr PLK1 protein reduction at 50 nM siRNA dose. (FIG. 2C) 4-day cell viability at 30 nM siRNA dose. (FIG. 2D) Cell cycle arrest increase in G2/M phase in A549 72 hr post treatment. Antibody (cetuximab) conjugated NP was used to deliver the siPLK1 (C-siPLK1-NP) or scrambled siRNA control (C-siSCR-NP) at 50 nM siRNA BI 2536 (a PLK1 inhibitor) was used as a drug benchmark at 10 nM. Data presented as mean±SD from independent duplicates (10,000 events per sample); ****P<0.0001 vs. untreat control. Unless specified otherwise, “NP” denotes mesoporous silica nanoparticles coated with cross-linked PEI and PEG, as described in Ngamcherdtrakul et al., Advanced Functional Materials, 25(18):2646-2659, 2015 and U.S. Patent Application Publication No. 2017/0173169.

| Structure (SMILES) | primary endpoint of objective response (acute myeloid leukemia) | viability of LLC-JSP cells vs vehicle (LLC-JSP cells) | surface PD-L1 level of surviving cells (PD-L1) | response as monotherapy (lung cancer) | cell cycle arrest in G2/M (A549) |
| --- | --- | --- | --- | --- | --- |
| CC[C@@H]1C(=O)N(C)c2cnc(Nc3ccc(C(=O)N[C@H]4CC[C@H](N5CCN(CC6CC6)CC5)CC4)cc3OC)nc2N1C(C)C [volasertib] | failed to meet primary endpoint of objective response | significantly reduced cell viability | upregulated surface PD-L1 level | lack of response |  |
| CC[C@@H]1C(=O)N(C)c2cnc(Nc3ccc(C(=O)NC4CCN(C)CC4)cc3OC)nc2N1C1CCCC1 [B12536] |  |  |  |  | G2/M growth arrest |
| COc1cc(Nc2ncc3c(n2)-c2ccc(Cl)cc2C(c2c(F)cccc2OC)=NC3)ccc1C(=O)O [alisertib] |  |  | upregulated surface PD-L1 level |  |  |
| NC(=O)Nc1cc(-c2cccc(F)c2)sc1C(=O)N[C@H]1CCCNC1 [AZD7762] |  |  | upregulated surface PD-L1 level |  |  |
